# Laboratory results published in patent US8153627B2, “Quinazoline linked pyrrolo[2,1-C][1, 4]benzodiazepine hybrids as potential anticancer agents and process for the preparation thereof” (Council of Scientific & Industrial Research, priority 2008, dated 2012).
# Columns and labels:
# [1] = test system: HL-60 (TB); test: Cytotoxicity SRB assay, HL-60 (TB); type: cell-based, human; details: Leukemia HL-60 (TB), 48 h exposure
# Protocol: (§1) 5a, 5c and 5d was evaluated for in vitro anticancer activity against sixty human tumor cells derived from nine cancer types leukemia, non-small-cell lung, colon, CNS, melanoma, ovarian, prostate, and breast cancer) as shown in (Table 1 and 2). For the compound, dose response curves for each cell line were measured at a minimum of five concentrations at 10 fold dilutions. A protocol of 48 h continuous drug exposure was used and a sulforhodamine B (SRB) protein assay was used to estimate cell viability or growth. The concentration causing 50% cell growth inhibition (GI50), total cell growth inhibition (TGI 0% growth) and 50% cell death (LC50, −50% growth) compared with the control was calculated.
# [2] = test system: SW-620; test: Cytotoxicity SRB assay, SW-620; type: cell-based, human; details: Colon SW-620, 48 h exposure
# Protocol: as §1
# [3] = test system: CCRF-CEM; test: Cytotoxicity SRB assay, CCRF-CEM; type: cell-based, human; details: Leukemia CCRF-CEM, 48 h exposure
# Protocol: as §1
# [4] = test system: NCI-H226; test: Cytotoxicity SRB assay, NCI-H226; type: cell-based, human; details: Non-small cell lung NCI-H226, 48 h exposure
# Protocol: as §1
# [5] = test system: SK-MEL-5; test: Cytotoxicity SRB assay, SK-MEL-5; type: cell-based, human; details: Melanoma SK-MEL-5, 48 h exposure
# Protocol: as §1
# [6] = test system: MDA-MB-231/ATCC; test: Cytotoxicity SRB assay, MDA-MB-231/ATCC; type: cell-based, human; details: Breast MDA-MB-231/ATCC, 48 h exposure
# Protocol: as §1
# [7] = test system: LOX IMVI; test: Cytotoxicity SRB assay, LOX IMVI; type: cell-based, human; details: Melanoma LOX IMVI, 48 h exposure
# Protocol: as §1
# [8] = test system: NCI-H522; test: Cytotoxicity SRB assay, NCI-H522; type: cell-based, human; details: Non-small cell lung NCI-H522, 48 h exposure
# Protocol: as §1
# [9] = test system: sixty human tumor cells derived from nine cancer types; test: NCI sixty human tumor cell line screen (SRB), all lines / mean graph midpoints; type: cell-based; details: human tumor cell lines, 48 h exposure, SRB; for Log10 LC50 mean graph midpoint (MG_MID): 50% cell death; for Log10 TGI mean graph midpoint (MG_MID): total cell growth inhibition
# Protocol: as §1
# The mean graph mid points of log10 TGI and log10 LC50 have shown similar pattern to the log10 GI50 mean graph mid points.
# [10] = test system: duplex-form calf thymus DNA (CT-DNA); test: Thermal denaturation studies with calf thymus DNA; type: binding; details: for Change of DNA melting (ΔTm) over incubation time: 0 hr, 18 hr and 36 hr at 37° C.; for ΔTμ (° C.) after incubation at 37° C. for 0 h / ΔTμ (° C.) after incubation at 37° C. for 18 h: [PBD]:[DNA] molar ratio 1:5, CT-DNA 100 μM, ligand 20 μM, pH 7.00
# Protocol: Compounds were subjected to thermal denaturation studies with duplex-form calf thymus DNA (CT-DNA) using an adaptation of a reported procedure. Working solutions in aqueous buffer (10 mM NaH2PO4/Na2HPO4, 1 mM Na2EDTA, pH 7.00+0.01) containing CT-DNA (100 μm in phosphate) and the PBD (20 μm) were prepared by addition of concentrated PBD solutions in DMSO to obtain a fixed [PBD]/[DNA] molar ratio of 1:5. The DNA-PBD solutions were incubated at 37° C. for 0, 18, and 36 h prior to analysis. Samples were monitored at 260 nm using a Beckman DU-7400 spectrophotometer fitted with high performance temperature controller, and heating was applied at 1° C. min^−1 in the 40-90° C. range. DNA helix coil transition temperatures (Tm) were obtained from the maxima in the (dA260)/dT derivative plots. Results are given as the mean±standard deviation from three determinations and are corrected for the effects of DMSO co-solvent using a linear correction term. Drug-induced alterations in DNA melting behaviour are given by: ΔTm=Tm(DNA+PBD)−Tm (DNA alone), where the Tm value for the PBD-free CT-DNA is 69.0±0.01.
# The DNA binding activity for these novel C8-linked quinazoline-PBD hybrids has been examined by thermal denaturation studies using calf thymus (CT) DNA. […] Data for 5a-d and DC-81 are included in Table 4 for comparison.
# [11] = test system: ACHN; test: Cytotoxicity SRB assay, ACHN; type: cell-based, human; details: Renal ACHN, 48 h exposure
# Protocol: as §1
# [12] = test system: TK-10; test: Cytotoxicity SRB assay, TK-10; type: cell-based, human; details: Renal TK-10, 48 h exposure
# Protocol: as §1
# [13] = test system: U251; test: Cytotoxicity SRB assay, U251; type: cell-based, human; details: CNS U251, 48 h exposure
# Protocol: as §1
# [14] = test system: HCT-116; test: Cytotoxicity SRB assay, HCT-116; type: cell-based, human; details: Colon HCT-116, 48 h exposure
# Protocol: as §1
# [15] = test system: CAKI-1; test: Cytotoxicity SRB assay, CAKI-1; type: cell-based, human; details: Renal CAKI-1, 48 h exposure
# Protocol: as §1
# [16] = test system: M14; test: Cytotoxicity SRB assay, M14; type: cell-based, human; details: Melanoma M14, 48 h exposure
# Protocol: as §1
# [17] = test system: NCI/ADR-RES; test: Cytotoxicity SRB assay, NCI/ADR-RES; type: cell-based, human; details: Breast NCI/ADR-RES, 48 h exposure
# Protocol: as §1
# [18] = test system: OVCAR-3; test: Cytotoxicity SRB assay, OVCAR-3; type: cell-based, human; details: Ovarian OVCAR-3, 48 h exposure
# Protocol: as §1
# [19] = test system: RPMI-8226; test: Cytotoxicity SRB assay, RPMI-8226; type: cell-based, human; details: Leukemia RPMI-8226, 48 h exposure
# Protocol: as §1
# [20] = test system: 786-0; test: Cytotoxicity SRB assay, 786-0; type: cell-based, human; details: Renal 786-0, 48 h exposure
# Protocol: as §1
# [21] = test system: A498; test: Cytotoxicity SRB assay, A498; type: cell-based, human; details: Renal A498, 48 h exposure
# Protocol: as §1
# [22] = test system: SF-539; test: Cytotoxicity SRB assay, SF-539; type: cell-based, human; details: CNS SF-539, 48 h exposure
# Protocol: as §1
# [23] = test system: UACC-62; test: Cytotoxicity SRB assay, UACC-62; type: cell-based, human; details: Melanoma UACC-62, 48 h exposure
# Protocol: as §1
# [24] = test system: HCT-15; test: Cytotoxicity SRB assay, HCT-15; type: cell-based, human; details: Colon HCT-15, 48 h exposure
# Protocol: as §1
# [25] = test system: MALME-3M; test: Cytotoxicity SRB assay, MALME-3M; type: cell-based, human; details: Melanoma MALME-3M, 48 h exposure
# Protocol: as §1
# [26] = test system: UACC-257; test: Cytotoxicity SRB assay, UACC-257; type: cell-based, human; details: Melanoma UACC-257, 48 h exposure
# Protocol: as §1
# [27] = test system: NCI-H23; test: Cytotoxicity SRB assay, NCI-H23; type: cell-based, human; details: Non-small cell lung NCI-H23, 48 h exposure
# Protocol: as §1
# [28] = test system: UO-31; test: Cytotoxicity SRB assay, UO-31; type: cell-based, human; details: Renal UO-31, 48 h exposure
# Protocol: as §1
SMILES,GI50 [1] [µM],GI50 [2] [µM],GI50 [3] [µM],GI50 [4] [µM],GI50 [5] [µM],GI50 [6] [µM],GI50 [7] [µM],GI50 [8] [µM],Log10 LC50 mean graph midpoint (MG_MID) [9],Log10 GI50 mean graph midpoint (MG_MID) [9],Log10 TGI mean graph midpoint (MG_MID) [9],Change of DNA melting (ΔTm) over incubation time [10],ΔTμ (° C.) after incubation at 37° C. for 0 h [10] [°C],ΔTμ (° C.) after incubation at 37° C. for 18 h [10] [°C],GI50 [11] [µM],GI50 [12] [µM],GI50 [13] [µM],GI50 [14] [µM],GI50 [15] [µM],GI50 [16] [µM],other results
COc1cc2c(cc1OCCCCCN1CCN(c3ncnc4ccccc34)CC1)N=C[C@@H]1CCCN1C2=O [Compound 5c],65.2,17.6,32.5,17.8,20.9,19.9,18.2,65.3,−4.19,−5.68,−4.86,gradually increased,10.3,11.8,22,38.2,15.8,21,25.8,14.5,GI50 [17]: 17.7 µM; GI50 [18]: 24.9 µM; GI50 [19]: 45 µM; GI50 [20]: 18.4 µM; GI50 [21]: 20.1 µM; GI50 [22]: 30.3 µM; GI50 [23]: 15.1 µM; GI50 [24]: 29.7 µM; GI50 [25]: 24.2 µM; GI50 [26]: 22.9 µM; GI50 [27]: 15.8 µM; GI50 [28]: 22.1 µM
COc1cc2c(cc1OCCCCCCN1CCN(c3ncnc4ccccc34)CC1)N=C[C@@H]1CCCN1C2=O [Compound 5d],19.5,25.9,13.4,18.4,23.3,14.2,15,18.3,−4.96,−6.49,−5.85,gradually increased,10.6,12.2,46.1,31.4,19.8,14.6,12.9,18.8,GI50 [17]: 18.7 µM; GI50 [18]: 26.3 µM; GI50 [19]: 16.8 µM; GI50 [20]: 14.9 µM; GI50 [21]: 22 µM; GI50 [22]: 33.7 µM; GI50 [23]: 22.5 µM; GI50 [24]: 18.4 µM; GI50 [25]: 36.2 µM; GI50 [26]: 15.9 µM; GI50 [27]: 22.5 µM; GI50 [28]: 15.2 µM
"COc1cc2c(cc1O)N=CC1CCCN1C2=O (stereo not drawn) [DC-81, reference compound]",–,–,–,–,–,–,–,–,–,–,–,–,0.3,0.7,–,–,–,–,–,–,–
